Where a chain is given by its changes, count along the chain named.
What was measured:
[1] = biological target: T1, wild-type Androgen Receptor (AR-wt) (Homo sapiens, UniProt P10275); test: LNCaP-AR-wt AG: ARE luciferase reporter assay, agonist mode; type: cell-based; settings: maximum % stimulation (agonist response), % of 1 μM R-1881 max
T1 construct: expressed in transfected cells; host or cells: LNCaP AR (cs) cells with ARE firefly luciferase lentiviral construct
T1 sequence (P10275 1-920): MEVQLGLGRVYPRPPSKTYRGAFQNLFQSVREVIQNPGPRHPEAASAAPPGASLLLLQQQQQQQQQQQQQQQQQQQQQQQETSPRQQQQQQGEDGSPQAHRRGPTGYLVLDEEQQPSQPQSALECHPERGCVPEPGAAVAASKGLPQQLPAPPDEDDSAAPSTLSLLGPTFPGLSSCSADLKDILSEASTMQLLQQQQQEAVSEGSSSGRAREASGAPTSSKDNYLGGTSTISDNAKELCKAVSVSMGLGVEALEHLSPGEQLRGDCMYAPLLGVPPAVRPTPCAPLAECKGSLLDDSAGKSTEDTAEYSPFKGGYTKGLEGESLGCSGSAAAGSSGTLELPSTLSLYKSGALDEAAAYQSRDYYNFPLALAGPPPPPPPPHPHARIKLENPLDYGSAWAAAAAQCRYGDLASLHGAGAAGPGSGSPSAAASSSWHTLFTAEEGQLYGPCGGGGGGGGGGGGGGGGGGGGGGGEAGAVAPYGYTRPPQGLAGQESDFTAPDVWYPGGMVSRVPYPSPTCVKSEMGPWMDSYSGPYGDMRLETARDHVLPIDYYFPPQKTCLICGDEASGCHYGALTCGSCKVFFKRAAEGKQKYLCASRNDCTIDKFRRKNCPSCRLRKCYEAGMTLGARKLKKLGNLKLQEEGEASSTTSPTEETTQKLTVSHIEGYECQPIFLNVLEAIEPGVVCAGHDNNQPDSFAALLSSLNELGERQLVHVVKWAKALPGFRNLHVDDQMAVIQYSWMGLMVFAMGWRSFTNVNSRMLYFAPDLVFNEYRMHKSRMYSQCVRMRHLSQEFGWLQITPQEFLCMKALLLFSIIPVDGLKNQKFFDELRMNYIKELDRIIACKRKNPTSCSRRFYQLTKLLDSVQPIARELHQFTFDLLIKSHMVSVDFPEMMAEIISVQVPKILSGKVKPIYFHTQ
Protocol: (§1) A stable pooled-population cell line was generated using puromycin (Life Technologies) selection at 1:10,000 v/v. The protocol below was used for both cell lines and for testing of the compounds of Formula (I) of the present invention.
(§2) LNCaP cells were grown to about 80% confluence, media removed and cells rinsed in Hank's balanced salt solution prior to separation from the plate with 0.05% Trypsin EDTA. Cells were lifted and trypsin negated in complete CSS (charcoal stripped serum) culture media. […] Agonist challenge was at 400 pM for WT assay and 600 pM for F876L assay. Plates containing cells and compounds herein were incubated for a further 20-24 hours at 37° C., 5% CO2 before addition of 40 μL/well of Steady-Glo Luciferase Assay System Reagent (Promega# E2520). After 1 h, plates were read for luminescence on a BMG Pherastar.
(§3) EC/IC50 calculations were achieved utilizing calculated RLU data and data fitting macros. Data were fit using least-squares methods to the following formula: […]
(§4) As used herein: pIC50 is defined as—Log10(IC50 expressed in [Molar]). pEC50 is defined as—Log10(EC50 expressed in [Molar]). […] LNCaP-AR-wt ANT refers to the reporter assay using LNCaP cells stably transfected with the Androgen Response Element Firefly Luciferase lentiviral construct and wild-type Androgen Receptor (AR-wt) in Antagonist mode. LNCaP-AR-wt AG refers to the reporter assay using LNCaP cells stably transfected with the Androgen Response Element Firefly Luciferase lentiviral construct and wild-type Androgen Receptor (AR-wt) in Agonist mode. LNCaP-AR-F876L ANT refers to the reporter assay using LNCaP cells stably transfected with the Androgen Response Element Firefly Luciferase lentiviral construct and F876L mutant Androgen Receptor (AR-F876L) in Antagonist mode. LNCaP-AR-F876L AG refers to the reporter assay using LNCaP cells stably transfected with the Androgen Response Element Firefly Luciferase lentiviral construct and F876L mutant Androgen Receptor (AR-F876L) in Agonist mode.

[2] = biological target: T2, F876L mutant Androgen Receptor (AR-F876L) (Homo sapiens, UniProt P10275, F877L); test: LNCaP-AR-F876L AG: ARE luciferase reporter assay, agonist mode; type: cell-based; settings: maximum % stimulation (agonist response), % of 1 μM R-1881 max
T2 construct: expressed in transfected cells; host or cells: LNCaP F876L cells with ARE firefly luciferase lentiviral construct
T2 sequence (P10275 1-920 F877L): T1 sequence (P10275 1-920) with F877L
Protocol: as §1, §2, §3, §4

Compound: N#Cc1ncc(N2C(=O)C3(CCC3)N(c3ccc(OCCCN4CCCC4)c(F)c3)C2=S)cc1C(F)(F)F [Cpd 55, 5-[8-[3-fluoro-4-(3-pyrrolidin-1-ylpropoxy)phenyl]-5-oxo-7-thioxo-6,8-diazaspiro[3.4]octan-6-yl]-3-(trifluoromethyl)pyridine-2-carbonitrile]
- LNCaP-AR-wt AG MAX % Stim [1]: 0.7%
- LNCaP-AR-F876L AG MAX % Stim [2]: 0.6%

Compound: N#Cc1ncc(N2C(=O)C3(CCC3)N(c3ccc(C(=O)NCCCc4ccccc4)c(F)c3)C2=S)cc1C(F)(F)F [Cpd 57, 4-[6-[6-cyano-5-(trifluoromethyl)-3-pyridyl]-5-oxo-7-thioxo-6,8-diazaspiro[3.4]octan-8-yl]-2-fluoro-N-(3-phenylpropyl)benzamide]
- LNCaP-AR-wt AG MAX % Stim [1]: 0.0%
- LNCaP-AR-F876L AG MAX % Stim [2]: 0.5%

Compound: N#Cc1ncc(N2C(=O)C3(CCC3)N(c3ccc(C(=O)NCc4cccs4)c(F)c3)C2=S)cc1C(F)(F)F [Cpd 59, 4-[6-[6-cyano-5-(trifluoromethyl)-3-pyridyl]-5-oxo-7-thioxo-6,8-diazaspiro[3.4]octan-8-yl]-2-fluoro-N-(2-thienylmethyl)benzamide]
- LNCaP-AR-wt AG MAX % Stim [1]: 1.5%
- LNCaP-AR-F876L AG MAX % Stim [2]: 0.7%

Compound: Cc1cc(N2C(=O)C3(CCC3)N(c3ccc(Oc4ccncn4)cc3)C2=S)cnc1C#N [Cpd 62, 3-methyl-5-[5-oxo-8-(4-pyrimidin-4-yloxyphenyl)-7-thioxo-6,8-diazaspiro[3.4]octan-6-yl]pyridine-2-carbonitrile]
- LNCaP-AR-wt AG MAX % Stim [1]: 0.8%
- LNCaP-AR-F876L AG MAX % Stim [2]: 0.4%

Compound: Cc1cc(N2C(=O)C3(CCC3)N(c3ccc(C(=O)Nc4nccs4)c(F)c3)C2=S)cnc1C#N [Cpd 63, 4-[6-(6-cyano-5-methyl-3-pyridyl)-5-oxo-7-thioxo-6,8-diazaspiro[3.4]octan-8-yl]-2-fluoro-N-thiazol-2-yl-benzamide]
- LNCaP-AR-wt AG MAX % Stim [1]: 0.7%
- LNCaP-AR-F876L AG MAX % Stim [2]: 0.3%

Compound: N#Cc1ncc(N2C(=O)C3(CCC3)N(c3ccc(C(=O)NCc4cccnc4)c(F)c3)C2=S)cc1C(F)(F)F [Cpd 67, 4-[6-[6-cyano-5-(trifluoromethyl)-3-pyridyl]-5-oxo-7-thioxo-6,8-diazaspiro[3.4]octan-8-yl]-2-fluoro-N-(3-pyridylmethyl)benzamide]
- LNCaP-AR-wt AG MAX % Stim [1]: 1.5%
- LNCaP-AR-F876L AG MAX % Stim [2]: 0.8%

Compound: CCCNC(=O)c1ccc(N2C(=S)N(c3cnc(C#N)c(C(F)(F)F)c3)C(=O)C23CCC3)cc1F [Cpd 68, 4-[6-[6-cyano-5-(trifluoromethyl)-3-pyridyl]-5-oxo-7-thioxo-6,8-diazaspiro[3.4]octan-8-yl]-2-fluoro-N-propyl-benzamide]
- LNCaP-AR-wt AG MAX % Stim [1]: 0.2%
- LNCaP-AR-F876L AG MAX % Stim [2]: 0.9%

Compound: N#Cc1ncc(N2C(=O)C3(CCC3)N(c3ccccc3)C2=S)cc1C(F)(F)F [Cpd 70, 5-(5-oxo-8-phenyl-7-thioxo-6,8-diazaspiro[3.4]octan-6-yl)-3-(trifluoromethyl)pyridine-2-carbonitrile]
- LNCaP-AR-wt AG MAX % Stim [1]: 0.3%
- LNCaP-AR-F876L AG MAX % Stim [2]: 0.9%

Compound: N#Cc1ncc(N2C(=O)C3(CCC3)N(c3ccc(Oc4ccncn4)cc3)C2=S)cc1C(F)(F)F [Cpd 71, 5-[5-oxo-8-(4-pyrimidin-4-yloxyphenyl)-7-thioxo-6,8-diazaspiro[3.4]octan-6-yl]-3-(trifluoromethyl)pyridine-2-carbonitrile]
- LNCaP-AR-wt AG MAX % Stim [1]: 0.5%
- LNCaP-AR-F876L AG MAX % Stim [2]: 0.9%

Compound: N#Cc1ncc(N2C(=O)C3(CCC3)N(c3ccc(C(=O)NCCCN4CCOCC4)c(F)c3)C2=S)cc1C(F)(F)F [Cpd 72, 4-[6-[6-cyano-5-(trifluoromethyl)-3-pyridyl]-5-oxo-7-thioxo-6,8-diazaspiro[3.4]octan-8-yl]-2-fluoro-N-(3-morpholinopropyl)benzamide]
- LNCaP-AR-wt AG MAX % Stim [1]: 0.3%
- LNCaP-AR-F876L AG MAX % Stim [2]: 0.6%

Compound: Cc1ccc(NC(=O)c2ccc(N3C(=S)N(c4cnc(C#N)c(C)c4)C(=O)C34CCC4)cc2F)cn1 [Cpd 75, 4-[6-(6-cyano-5-methyl-3-pyridyl)-5-oxo-7-thioxo-6,8-diazaspiro[3.4]octan-8-yl]-2-fluoro-N-(6-methyl-3-pyridyl)benzamide]
- LNCaP-AR-wt AG MAX % Stim [1]: 0.8%
- LNCaP-AR-F876L AG MAX % Stim [2]: 0.8%

Compound: N#Cc1ncc(N2C(=O)C3(CCC3)N(c3cccc(CO)c3)C2=S)cc1C(F)(F)F [Cpd 81, 5-[8-[3-(hydroxymethyl)phenyl]-5-oxo-7-thioxo-6,8-diazaspiro[3.4]octan-6-yl]-3-(trifluoromethyl)pyridine-2-carbonitrile]
- LNCaP-AR-wt AG MAX % Stim [1]: 0.7%
- LNCaP-AR-F876L AG MAX % Stim [2]: 1.2%

Compound: Cc1cc(N2C(=O)C3(CCC3)N(c3ccc(OC4CCOCC4)cc3)C2=S)cnc1C#N [Cpd 87, 3-methyl-5-[5-oxo-8-(4-tetrahydropyran-4-yloxyphenyl)-7-thioxo-6,8-diazaspiro[3.4]octan-6-yl]pyridine-2-carbonitrile]
- LNCaP-AR-wt AG MAX % Stim [1]: 1.1%
- LNCaP-AR-F876L AG MAX % Stim [2]: 0.9%

Compound: N#Cc1ncc(N2C(=O)C3(CCC3)N(c3ccc(Oc4cncnc4)cc3)C2=S)cc1C(F)(F)F [Cpd 88, 5-[5-oxo-8-(4-pyrimidin-5-yloxyphenyl)-7-thioxo-6,8-diazaspiro[3.4]octan-6-yl]-3-(trifluoromethyl)pyridine-2-carbonitrile]
- LNCaP-AR-wt AG MAX % Stim [1]: 0.7%
- LNCaP-AR-F876L AG MAX % Stim [2]: 0.7%

Compound: N#Cc1ncc(N2C(=O)C3(CCC3)N(c3ccc4[nH]ncc4c3)C2=S)cc1C(F)(F)F [Cpd 92, 5-[8-(1H-indazol-5-yl)-5-oxo-7-thioxo-6,8-diazaspiro[3.4]octan-6-yl]-3-(trifluoromethyl)pyridine-2-carbonitrile]
- LNCaP-AR-wt AG MAX % Stim [1]: 2.8%
- LNCaP-AR-F876L AG MAX % Stim [2]: 1.3%

Reference: patent US20190209539A1, “THIOHYDANTOIN ANDROGEN RECEPTOR ANTAGONISTS FOR THE TREATMENT OF CANCER” (Janssen Pharmaceutica NV, priority 2016, published 2019)
